Assay results reported in publication PMC11281344 (Viruses, 2024).
Where two headings read alike, the source gives them in different places.

Legend:
[1] = test system: BHK-21 cells
[2] = in vitro; settings: hamster
[3] = test system: FMDV serotype A [A/TAI/NP05/2017 (NP05)]; assay: microbe, parasite or virus in culture; type: cell-based, Foot-and-mouth disease virus; settings: for EC50: read-out: Antiviral Activity (EC50) CPE (Crystal Violet)
[4] = test system: human herpes simplex virus-2 (HSV-2); settings: cited from earlier work
[5] = test system: FMDV serotype A [A/TAI/NP05/2017 (NP05)]; assay: microbe, parasite or virus in culture; type: cell-based, Foot-and-mouth disease virus
[6] = test system: FMDV serotype A [A/TAI/NP05/2017 (NP05)]; assay: microbe, parasite or virus in culture; type: cell-based, Foot-and-mouth disease virus; settings: for EC50: read-out: Antiviral Activity (EC50) Viral Copy Number (RT-qPCR)
[7] = test system: ZIKV; settings: read-out: IC50 against ZIKV; cited from earlier work
[8] = biological target: FMDV 3D^pol (Foot-and-mouth disease virus serotype O, UniProt P03305); assay: cell-based; type: cell-based
Sequence of FMDV 3D^pol (P03305 1863-2332 limits assumed): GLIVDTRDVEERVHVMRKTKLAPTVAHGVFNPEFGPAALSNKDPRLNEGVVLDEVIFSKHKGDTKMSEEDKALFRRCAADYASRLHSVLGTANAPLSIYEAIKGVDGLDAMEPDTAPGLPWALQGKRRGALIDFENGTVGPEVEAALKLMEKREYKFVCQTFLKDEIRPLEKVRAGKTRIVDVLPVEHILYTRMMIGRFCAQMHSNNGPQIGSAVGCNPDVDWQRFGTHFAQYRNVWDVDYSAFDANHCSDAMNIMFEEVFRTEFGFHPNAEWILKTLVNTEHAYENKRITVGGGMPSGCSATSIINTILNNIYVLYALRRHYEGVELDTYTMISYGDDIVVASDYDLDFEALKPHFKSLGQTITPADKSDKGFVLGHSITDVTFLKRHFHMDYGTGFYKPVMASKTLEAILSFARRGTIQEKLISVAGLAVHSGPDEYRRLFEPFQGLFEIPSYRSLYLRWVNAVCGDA

[9] = test system: HSV-1; settings: cited from earlier work
[10] = read-out: Antiviral Activity (EC50) FMDV-Infected Cells (IPMA)
[11] = Foot-and-mouth disease virus, BHK-21, 24 h
[12] = Foot-and-mouth disease virus, BHK-21, read-out: Antiviral Activity (EC50) FMDV-Infected Cells (IPMA)

## CC(=O)O[C@@]12CO[C@@H]1C[C@H](O)[C@@]1(C)C(=O)[C@H](O)C3=C(C)[C@@H](O)C[C@@](O)([C@@H](OC(=O)c4ccccc4)[C@H]21)C3(C)C [10-Deacetylbaccatin III]
[1]
  CC50: > 500 µM

## CC(C)C1=CC2=CC[C@@H]3[C@](C)(CCC[C@@]3(C)C(=O)O)[C@H]2CC1 [Abietic acid]
[2]
  CC50: 99.2 ± 2 µM
[3]
  Antiviral Activity (EC50) CPE (Crystal Violet): Not inhibit
  Antiviral activity against FMDV infection (result in words): did not exhibit antiviral activity
[4]
  Activity against HSV-2 (result in words): did not exhibit such activity

## C[C@@H]1C[C@@H]([C@@H](O)C(C)(C)O)O[C@H]2C[C@@]3(C)C(=C12)C[C@H](O)[C@H]1[C@@]2(C)CCC(=O)C(C)(C)[C@@H]2CC[C@@]13C [Alisol F]
[1]
  CC50: 85.2 ± 1.93 µM

## CC1=CC(=O)[C@@H](O)[C@]2(C)[C@H]3[C@@H](O)[C@H](O)[C@@]4(C)OC[C@@]35[C@@H](C[C@@H]12)OC(=O)[C@H](O)[C@]54O [Bruceine D]
[3]
  Antiviral activity against FMDV infection (result in words): exhibited antiviral activities
  EC50: 0.25 ± 0.6 µM
[5]; [10]
  EC50: 0.32 ± 0.49 µM
[6]
  Concentration range of complete inhibition of FMDV: 1 to 2.5 µM
  EC50: 0.42 ± 0.38 µM
[7]
  IC50: 0.36 µM

## CC1=C[C@H](O)[C@@H](O)[C@]2(C)[C@H]3[C@@H](O)[C@H](O)[C@@]4(C)OC[C@@]35[C@@H](C[C@@H]12)OC(=O)[C@H](O)[C@]54O [Bruceine E]
[2]
  CC50: 49.6 ± 1.7 µM
[3]
  Antiviral activity against FMDV infection (result in words): exhibited antiviral activities
[3]; [11]
  EC50: 18.1 ± 1.26 µM
[5]; [12]
  EC50: 12.9 ± 1.11 µM
[8]
  IC50: 26.7 ± 1.43 µM
  Inhibition of FMDV 3Dpol (result in words): moderate inhibition
[6]
  Inhibition of viral load (result in words): moderate potency
[6]; [11]
  EC50: 33.4 ± 1.52 µM

## C=CC1(C)C=C2CCC3C(C)(C(=O)O)CCCC3(C)C2CC1 (centres unmarked) [Continentalic acid]
[2]
  CC50: 88.7 ± 1.82 µM
[3]
  Antiviral activity against FMDV infection (result in words): exhibited antiviral activities
[3]; [11]
  EC50: 43.4 ± 1.64 µM
[5]; [12]
  EC50: 35 ± 1.54 µM
[8]
  IC50: 36.9 ± 1.57 µM
  Inhibition of FMDV 3Dpol (result in words): moderate inhibition
[6]
  Inhibition of viral load (result in words): moderate inhibition
[6]; [11]
  EC50: 68.3 ± 1.83 µM

## CC(C)(O)CCC(=O)[C@](C)(O)C1[C@H](O)C[C@@]2(C)[C@@H]3CC=C4[C@@H](C[C@H](O)[C@@H](O)C4(C)C)[C@]3(C)C(=O)C[C@]12C (some centres unmarked) [Cucurbitacin IIb]
[1]
  CC50: 240.5 ± 2.38 µM

## CC(C)c1ccc2c(c1)CC[C@H]1[C@](C)(C(=O)O)CCC[C@]21C [Dehydroabietic acid]
[2]
  CC50: 94.8 ± 1.98 µM
[3]
  Antiviral activity against FMDV infection (result in words): exhibited antiviral activities
[3]; [11]
  EC50: 41.7 ± 1.62 µM
[5]; [12]
  EC50: 34 ± 1.53 µM
[8]
  IC50: > 50 µM
[6]
  Inhibition of viral load (result in words): low to moderate inhibition
[6]; [11]
  EC50: 64.5 ± 1.81 µM
[4]
  Activity against HSV-2 (result in words): moderate activity
[9]
  Activity against HSV-1 (result in words): did not inhibit

## C=C1[C@H](OC(=O)c2ccccc2)C[C@H]2[C@@H](/C=C(\C)C(=O)[C@@]3(OC(C)=O)C[C@H](C)[C@H](OC(=O)c4ccccc4)[C@@H]3[C@H]1OC(C)=O)C2(C)C [Euphorbia factor L2]
[1]
  CC50: 114 ± 2.06 µM

## CC(=O)O[C@H]1[C@H]2[C@@H](OC(=O)Cc3ccccc3)[C@@H](C)C[C@]2(OC(C)=O)C(=O)/C(C)=C/[C@@H]2[C@H](CC[C@@]13CO3)C2(C)C [Euphorbiasteroid]
[1]
  CC50: > 500 µM

## C=C[C@@]1(C)CC(=O)[C@]2(O)[C@@]3(C)[C@@H](O)CCC(C)(C)[C@@H]3[C@H](O)[C@H](OC(C)=O)[C@@]2(C)O1 [Forskolin]
[2]
  CC50: 75.9 ± 1.88 µM

## C[C@H](CC(=O)C[C@@H](C)[C@H]1C[C@H](O)[C@@]2(C)C3=C(C(=O)C[C@]12C)[C@@]1(C)CCC(=O)C(C)(C)[C@@H]1C[C@@H]3O)C(=O)O [Ganoderic acid A]
[2]
  CC50: > 500 µM

## C[C@@H]1C(=O)O[C@H]2C[C@@]34[C@H]5C[C@@H](C(C)(C)C)[C@]36[C@@H](OC(=O)[C@@H]6O)O[C@@]4(C(=O)O5)[C@]21O [Ginkgolide A]
[2]
  CC50: 314.2 ± 2.5 µM

## CC(C)=CCC[C@](C)(O)[C@H]1CC[C@]2(C)[C@@H]1[C@H](O)C[C@@H]1[C@@]3(C)CC[C@H](O[C@@H]4O[C@H](CO)[C@@H](O)[C@H](O)[C@H]4O[C@@H]4O[C@H](CO)[C@@H](O)[C@H](O)[C@H]4O)C(C)(C)[C@@H]3CC[C@]12C [Ginsenoside Rg3]
[1]
  CC50: 269.9 ± 2.43 µM

## CC(C)=CCC[C@](C)(O)[C@H]1CC[C@]2(C)[C@@H]1[C@H](O)C[C@@H]1[C@@]3(C)CC[C@H](O)C(C)(C)[C@@H]3[C@@H](O[C@@H]3O[C@H](CO)[C@@H](O)[C@H](O)[C@H]3O)C[C@]12C [Ginsenoside Rh1]
[2]
  CC50: 174 ± 2.24 µM

## CC1=C[C@]23C(=O)[C@@H](C=C(CO)[C@@H](O)[C@]2(O)[C@H]1O)[C@H]1[C@@H](C[C@H]3C)C1(C)C [Ingenol]
[2]
  CC50: 417.1 ± 2.62 µM

## C=C1C[C@@]23CC[C@H]4[C@@](C)(CCC[C@@]4(C)C(=O)O)[C@@H]2CC[C@@H]1C3 [Kaurenoic acid]
[2]
  CC50: 266.1 ± 2.42 µM
[3]
  Antiviral Activity (EC50) CPE (Crystal Violet): Not inhibit
  Antiviral activity against FMDV infection (result in words): did not exhibit antiviral activity

## C=C1CC[C@H]2[C@@H](/C=C(\C)C(=O)[C@@]3(O)C[C@H](C)[C@H](O)[C@@H]3[C@@H]1O)C2(C)C [Lathyrol]
[1]
  CC50: 314.6 ± 2.5 µM

## CC1(C)O[C@H]2CC(=O)OC[C@]23[C@H]2CC[C@@]4(C)[C@H](c5ccoc5)OC(=O)[C@H]5O[C@]54[C@]2(C)C(=O)C[C@@H]13 [Limonin]
[2]
  CC50: 116 ± 2.07 µM

## C=C1C(=O)[C@]23[C@H](O)[C@H]1CC[C@H]2[C@@]12CO[C@]3(O)[C@@H](O)[C@@H]1C(C)(C)CC[C@@H]2O [Oridonin]
[2]
  CC50: 46.8 ± 1.67 µM

## COC(=O)C1=CC[C@@]23CC[C@@H]([C@@](C)(/C=C/C=C(\C)C(=O)O)OC2=O)[C@@]3(OC(C)=O)CC1 [Pseudolaric acid]
[1]
  CC50: 25.3 ± 1.4 µM

## NC(=O)c1ncn([C@@H]2O[C@H](CO)[C@@H](O)[C@H]2O)n1 [Ribavirin, reference compound]
[2]
  CC50: > 500 µM
[3]; [11]
  EC50: 64.5 ± 1.81 µM
[5]; [12]
  EC50: 40.9 ± 1.61 µM
[6]; [11]
  EC50: 27.7 ± 1.44 µM

## C[C@@H]1CC[C@]2(C(=O)O[C@@H]3O[C@H](CO)[C@@H](O)[C@H](O)[C@H]3O)CC[C@]3(C)C(=CC[C@@H]4[C@@]5(C)C[C@@H](O)[C@H](O)C(C)(C)[C@@H]5CC[C@]43C)[C@@H]2[C@]1(C)O [Rosamultin]
[1]
  CC50: 333.2 ± 2.52 µM

## C=C(C(=O)O)[C@H]1CC[C@H](C)[C@@H]2CC(=O)C(C)=C2C1 [Rupestonic acid]
[1]
  CC50: 72.3 ± 1.86 µM

## CC1(C)O[C@H]2CC(=O)OC[C@]23[C@H]2CC[C@@]4(C)[C@H](c5ccoc5)OC(=O)[C@H]5O[C@]54[C@]2(C)[C@@H](O)C(=O)[C@@H]13 [Rutaevin]
[2]
  CC50: 472 ± 2.67 µM

## C[C@H]1O[C@@H](O[C@H]2CC[C@@]3(C)[C@@H](CC[C@]4(C)[C@@H]3C=CC3=C5CC(C)(C)CC[C@]5(CO)[C@H](O)C[C@]34C)[C@]2(C)CO)[C@H](O)[C@@H](O[C@@H]2O[C@H](CO)[C@@H](O)[C@H](O)[C@H]2O)[C@H]1O [Saikosaponin B2]
[1]
  CC50: > 500 µM

## CCC(C)(C)C(=O)O[C@H]1C[C@@H](C)C=C2C=C[C@H](C)[C@H](CC[C@@H]3C[C@@H](O)CC(=O)O3)[C@H]21 [Simvastatin, reference compound]
[2]
  CC50: 294.4 ± 2.47 µM

## CC1(C)CCC2(C(=O)O)CCC3(CO)C(=CCC4C5(C)CC(O)C(OC6OC(CO)C(O)C(O)C6O)C(C)(C(=O)O)C5CCC43C)C2C1 (centres unmarked) [Tenuifolin]
[2]
  CC50: 54.9 ± 1.74 µM

## CC(C)[C@]12O[C@H]1[C@@H]1O[C@]13[C@]1(O[C@H]1C[C@H]1C4=C(CC[C@@]13C)C(=O)OC4)[C@@H]2O [Triptolide]
[2]
  CC50: 122 ± 2.09 µM

## CC(C)c1ccc2c(c1O)CC[C@H]1C3=C(CC[C@]21C)C(=O)OC3 [Triptophenolide]
[2]
  CC50: 117 ± 2.07 µM

## C[C@@H]1CC[C@]2(C(=O)O)CC[C@]3(C)C(=CC[C@@H]4[C@@]5(C)CC[C@H](O[C@@H]6OC[C@H](O)[C@H](O)[C@H]6O)C(C)(C)[C@@H]5CC[C@]43C)[C@@H]2[C@]1(C)O [Ziyuglycoside II]
[1]
  CC50: 57.7 ± 1.76 µM

## Brusatol
[3]
  Antiviral activity against FMDV infection (result in words): exhibited antiviral activities
  EC50: 0.18 ± 0.27 µM
[5]; [10]
  EC50: 0.07 µM
[6]
  Concentration range of complete inhibition of FMDV: 0.5 to 1 µM
  EC50: 0.09 µM
